We go through two molecules from patent publication US11912694B1, “2-(benzo[d]oxazol-2-yl)-N′-(2-(5-(4-chlorophenyl)-1,3,4-oxadiazol-2-ylthio)acetoxy)acetimidamide as an antimicrobial compound” (KING FAISAL UNIVERSITY, priority 2023, dated 2024).

The structures appear in SMILES notation.

In series [1] the test system is Bacillus cereus. Description: Agar plate disc-diffusion, antibacterial, Bacillus cereus. Format: cell-based. As to conditions: nutrient agar, 37° C., 48 hours. The protocol: (§1) The agar plate disc-diffusion method was applied. Sterilized filter papers (6 mm in diameter) were wetted with 10 μL of a solution of 2-(benzo[d]oxazol-2-yl)-N′-(2-(5-(4-chlorophenyl)-1,3,4-oxadiazol-2-ylthio)acetoxy)acetimidamide (3) to be tested, […], and the discs were allowed to air dry. The discs were then placed onto the surface of agar plates (nutrient agar for bacteria and Sabouraud's dextrose agar for fungi) seeded with the test organism. Each plate contained 15 mL of the agar medium, previously seeded with 0.2 mL of the broth culture of each organism pregrown for 18 hours. The plates were incubated at 37° C. for 48 hours and 72 hours for fungi. The inhibition zones were measured in mm. Discs impregnated with DMSO were used as a control, and their inhibition zone was subtracted from the tested compound's actual inhibition zone.
(In general: Agar diffusion results depend on both activity and mobility in agar.)

The test system of series [2] is Staphylococcus aureus. Description: Agar plate disc-diffusion, antibacterial, Staphylococcus aureus. In kind it is cell-based. As to conditions: nutrient agar, 37° C., 48 hours. The protocol:
as §1

The subject of series [3] is Pseudomonas aeruginosa. Description: Agar plate disc-diffusion, antibacterial, Pseudomonas aeruginosa. Format: cell-based. As to conditions: nutrient agar, 37° C., 48 hours. How it is done:
as §1

The test system of series [4] is Escherichia coli. Description: Agar plate disc-diffusion, antibacterial, Escherichia coli. The following applies: nutrient agar, 37° C., 48 hours. In kind it is cell-based. The protocol: as §1
The subject of series [5] is Aspergillus flavus. Description: Agar plate disc-diffusion, antifungal, Aspergillus flavus. The following applies: Sabouraud's dextrose agar, 37° C., 72 hours. In kind it is cell-based. How it is done:
as §1

The test system of series [6] is Chrysosporium keratinophilum. Description: Agar plate disc-diffusion, antifungal, Chrysosporium keratinophilum. In kind it is cell-based. As to conditions: Sabouraud's dextrose agar, 37° C., 72 hours. The protocol: as §1
The mark [7] stands for this setting: A = concentration of comp. = 10,000 μL.
Where [8] appears, read: B = concentration of comp. = 30,000 μL.
Setting [9] is: C = concentration of comp. = 50,000 μL.
Where [10] appears, read: A = concentration of comp. = 10,000 μg/mL.
[11] abbreviates: A = concentration of comp. = 10 mg/mL.

Consider `O=C(O)c1cn(C2CC2)c2cc(N3CCNCC3)c(F)cc2c1=O` [Cip., ciprofloxacin, reference compound], for which the inhibition zone in series [1] (setting [7]) is 29 mm; in series [1] (setting [8]) it was 30 mm; in series [1] (setting [9]) it was 42 mm; in series [2] (setting [7]) it was 43 mm; in series [2] (setting [8]), 44 mm; in series [2] (setting [9]), 53 mm. Moreover, the inhibition zone is listed as 29 mm in series [3] (setting [10]); 30 mm in series [3] (setting [8]); 53 mm in series [3] (setting [9]); 30 mm in series [4] (setting [10]); 39 mm in series [4] (setting [8]); 60 mm in series [4] (setting [9]). Besides, the inhibition zone in series [5] (setting [7]) was 29 mm; in series [5] (setting [8]), 30 mm; in series [5] (setting [9]), 42 mm; in series [6] (setting [11]), 29 mm; in series [6] (setting [8]) it was 30 mm; in series [6] (setting [9]), 53 mm.

`N/C(Cc1nc2ccccc2o1)=N\OC(=O)CSc1nnc(-c2ccc(Cl)cc2)o1` [Compound 3, 2-(benzo[d]oxazol-2-yl)-N′-(2-(5-(4-chlorophenyl)-1,3,4-oxadiazol-2-ylthio)acetoxy)acetimidamide] gave a melting point of 162 to 163 °C. The molecule also showed an inhibition zone in series [1] (setting [7]) of 27 mm. In series [1] (setting [8]), this molecule registered an inhibition zone of 30 mm. The same molecule yielded an inhibition zone in series [1] (setting [9]) of 41 mm. The molecule further returned an inhibition zone in series [2] (setting [7]) of 27 mm. Besides, in series [2] (setting [8]), the inhibition zone came out at 35 mm. This molecule also had an inhibition zone in series [2] (setting [9]) of 42 mm. The inhibition zone in series [3] (setting [10]) was 24 mm. The molecule further came in with an inhibition zone in series [3] (setting [8]) of 29 mm. Moreover, the inhibition zone in series [3] (setting [9]) came to 36 mm. Further, the inhibition zone in series [4] (setting [10]) is listed as 28 mm. For the same molecule, in series [4] (setting [8]), the inhibition zone is 37 mm. The inhibition zone in series [4] (setting [9]) was 49 mm. The same molecule gave an inhibition zone in series [5] (setting [7]) of 25 mm. Moreover, the inhibition zone in series [5] (setting [8]) is 30 mm. The inhibition zone in series [5] (setting [9]) is listed as 41 mm. Also, the inhibition zone in series [6] (setting [11]) is 28 mm. In series [6] (setting [8]), this molecule showed an inhibition zone of 35 mm. The same molecule gave an inhibition zone in series [6] (setting [9]) of 47 mm.

What is called melting point is the temperature of the solid-liquid transition.
